# Test results from PMC11747885, “Potent inhibitors of the human RNA ligase Rlig1 highlights its role in RNA integrity maintenance under oxidative cellular stress” (Chemical Science, 2025).
# Several values for one entry are separate records, joined by “and”; a condition that tells them apart may be missing. Equal values may be shown once. Entries after “also recorded” stand apart in the source; their conditions may differ. Read-outs that look alike come from different tables or passages of the source.
# Experiments:
# Rlig1-AMP [1] = biological target: T1, Rlig1-AMP (Homo sapiens, UniProt Q8N999); experiment: FRET-based high-throughput screening of inhibitors for Rlig1-AMP; assay type: biochemical; conditions: for 1-D Distance: difference of raw data w/o and w enzyme; for 1-D Distance.npi: normalized value (npi); for Raw data [w Enyzm]: with enzyme; for Raw data [w/o Enzym]: without enzyme
# T1 construct: made in house; host or cells: E. coli BL21 (DE3), pET15b-Rlig1
# T1 sequence (Q8N999 whole entry): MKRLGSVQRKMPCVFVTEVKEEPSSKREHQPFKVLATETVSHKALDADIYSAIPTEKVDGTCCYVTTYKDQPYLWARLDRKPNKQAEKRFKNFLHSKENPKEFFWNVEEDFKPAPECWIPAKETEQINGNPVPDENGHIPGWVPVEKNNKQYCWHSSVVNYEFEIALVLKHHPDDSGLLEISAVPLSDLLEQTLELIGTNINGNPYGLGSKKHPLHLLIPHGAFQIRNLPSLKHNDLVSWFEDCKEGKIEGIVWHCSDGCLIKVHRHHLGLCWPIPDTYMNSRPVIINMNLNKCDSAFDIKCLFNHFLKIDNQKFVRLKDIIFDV
# [2] = system: kinesin-like protein KIFC1 (HSET/KIFC1); set-up: method as in MedChemExpress; conditions: ref MedChemExpress; cited from earlier work
# [3] = system: SHSY5Y neuroblastoma cells; set-up: method as in MedChemExpress; conditions: ref MedChemExpress, cited from earlier work
# [4] = DMSO; ref MedChemExpress; cited from earlier work
# Rlig1-AMP [5] = biological target: T1, Rlig1-AMP; experiment: Radioactive RNA ligation assay (hit validation, 10 µM test and IC50 determination); assay type: biochemical; conditions: for IC50: n = 3; for percentage inhibition (dose response curve for IC50): replicates I-III
# [6] = Cell viability assay of HEK293 cells treated with inhibitors and menadione; assay type: cell-based, human; conditions: human, HEK293 cells, 30 μM compound, 24 h, no menadione; read-out: cell viability without oxidative stress
# HEK293 cells [7] = experiment: as above; assay type: cell-based, human; conditions: inhibitor 24 h, then 40 μM menadione 5 h
# HEK293 cells [8] = experiment: RNA integrity analysis of HEK293 cells treated with inhibitors and menadione (TapeStation 28S/18S rRNA); assay type: cell-based, human; conditions: 30 μM compound 24 h; Menadione 0 μM
# HEK293 cells [9] = experiment: Light-microscopy of inhibitor- and menadione-treated HEK293 cells; assay type: cell-based, human; conditions: 30 µM compound 24 h, then menadione 5 h
# [10] = system: DNA methyltransferases (DNMTs); conditions: cited from earlier work
# in vitro = conditions: human
# HEK293 cells [11] = experiment: Cell viability assay of HEK293 cells treated with inhibitors (CellTiter-Glo)
# [12] = biological target: T2, human DNA ligase 1 (hLig1) (Homo sapiens, UniProt P18858); experiment: DNA ligation assay with various hLig1 concentration at constant inhibitor concentration; assay type: biochemical; conditions: 10 µM compound, 30 min 37 °C, three replicates
# T2 construct: made in house; host or cells: E. coli Rosetta BL21 (DE3), pET28a-hLig1
# T2 sequence (P18858 whole entry): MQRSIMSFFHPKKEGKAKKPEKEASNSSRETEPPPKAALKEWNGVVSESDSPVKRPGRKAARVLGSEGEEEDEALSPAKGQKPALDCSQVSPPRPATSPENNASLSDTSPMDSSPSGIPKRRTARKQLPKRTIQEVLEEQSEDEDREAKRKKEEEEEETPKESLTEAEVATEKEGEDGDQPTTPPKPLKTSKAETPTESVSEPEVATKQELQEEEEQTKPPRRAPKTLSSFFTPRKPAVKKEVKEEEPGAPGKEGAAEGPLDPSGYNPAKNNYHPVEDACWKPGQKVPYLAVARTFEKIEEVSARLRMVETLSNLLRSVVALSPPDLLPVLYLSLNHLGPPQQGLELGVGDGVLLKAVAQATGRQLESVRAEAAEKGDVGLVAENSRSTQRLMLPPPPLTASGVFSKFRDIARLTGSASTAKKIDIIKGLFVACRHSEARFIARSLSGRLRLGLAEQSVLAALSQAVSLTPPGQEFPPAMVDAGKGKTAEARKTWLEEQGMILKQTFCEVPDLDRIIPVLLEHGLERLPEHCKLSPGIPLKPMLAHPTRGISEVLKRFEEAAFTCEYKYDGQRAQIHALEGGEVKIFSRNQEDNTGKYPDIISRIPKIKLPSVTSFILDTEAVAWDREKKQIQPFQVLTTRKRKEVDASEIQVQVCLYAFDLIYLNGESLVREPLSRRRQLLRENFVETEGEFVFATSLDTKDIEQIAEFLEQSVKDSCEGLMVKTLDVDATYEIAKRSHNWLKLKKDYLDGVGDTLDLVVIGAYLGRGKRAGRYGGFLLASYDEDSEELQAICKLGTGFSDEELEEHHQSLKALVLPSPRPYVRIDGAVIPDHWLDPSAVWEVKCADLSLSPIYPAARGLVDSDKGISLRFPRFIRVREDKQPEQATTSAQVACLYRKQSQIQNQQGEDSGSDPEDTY
# FLT3 WT = system: FLT3 WT; set-up: method as in MedChemExpress [1][2][3]; conditions: ref MedChemExpress [1][2][3]; cited from earlier work
# [13] = system: FLT3 internal tandem duplication (ITD); set-up: method as in MedChemExpress [1][2][3]; conditions: ref MedChemExpress [1][2][3]; cited from earlier work
# FLT3 D835Y = system: FLT3 D835Y; set-up: method as in MedChemExpress [1][2][3]; conditions: ref MedChemExpress [1][2][3]; cited from earlier work
# [14] = in DMSO; ref MedChemExpress; cited from earlier work
# [15] = radioactive ligation assay, 500 nM Rlig1-AMP, 20 min 37 °C, read-out: IC50
# [16] = log(inhibitor) vs. response, variable slope (four parameters)
structure (smiles),measurement,setting,value
CCCc1cc(C(=O)N[C@H](Cc2ccc(-c3cccc(OC(F)(F)F)c3)nc2)C(=O)N[C@@H]2CCNC2)sc1C [AZ82],1-D Distance,Rlig1-AMP [1]; HTS hits,670
same,1-D Distance.npi,Rlig1-AMP [1]; HTS hits,96.1946
same,Raw data [w Enyzm],Rlig1-AMP [1]; HTS hits,8773
same,Raw data [w/o Enzym],Rlig1-AMP [1]; HTS hits,9443
same,IC50,[2],0.3 µM
same,Ki,[2],0.043 µM
COc1nc(-c2cc(C)c(N[C@@H](C)c3ccc(F)cc3)nn2)ccc1-n1cnc(C)c1 [BPN-15606],1-D Distance,Rlig1-AMP [1]; HTS hits,1474
same,1-D Distance.npi,Rlig1-AMP [1]; HTS hits,75.4488
same,Raw data [w Enyzm],Rlig1-AMP [1]; HTS hits,8858
same,Raw data [w/o Enzym],Rlig1-AMP [1]; HTS hits,10332
same,IC50,"[3]; read-out: IC50, production of Aβ40",0.017 µM
same,IC50,"[3]; read-out: IC50, production of Aβ42",0.007 µM
same,solubility,[4],100 mg/mL and 238.97 mM
"Cc1cc(Nc2ccc(NC(=O)c3ccc(Nc4ccnc5ccccc45)cc3)cc2)nc(N)n1 [Compound 1, SGI-1027, reference compound]",inhibition at 10 µM,"Rlig1-AMP [1]; 10 μM compound, read-out: inhibition in HTS",> 70%
same,1-D Distance,Rlig1-AMP [1]; HTS hits,390
same,Raw data [w Enyzm],Rlig1-AMP [1]; HTS hits,8456
same,Raw data [w/o Enzym],Rlig1-AMP [1]; HTS hits,8066
same,inhibition at 10 µM,"Rlig1-AMP [5]; 10 µM compound, 37 °C, 20 min",> 70%
same,formation of the RNA-adenylate intermediate,Rlig1-AMP [5]; dose-response urea-PAGE (Fig. S3),inhibited the formation of the RNA-adenylate intermediate
same,IC50,Rlig1-AMP [5]; [15],3.96 µM
same,"viability at 24 h, 30 µM",[6],50%
same,cell viability under oxidative stress (in words),HEK293 cells [7],almost complete loss of viability
same,28S/18S ratio,HEK293 cells [8],> 2
same,cell morphology,HEK293 cells [9],poor adherence and cell shrinkage
same,IC50,"[10]; DNMT1, poly(dI-dC) as substrate, ref MedChemExpress, read-out: IC50",12.5 µM
same,IC50,"[10]; DNMT3A, poly(dI-dC) as substrate, ref MedChemExpress, read-out: IC50",8 µM
same,IC50,"[10]; DNMT3B, poly(dI-dC) as substrate, ref MedChemExpress, read-out: IC50",7.5 µM
same,IC50,[10]; read-out: IC50 DNMTs,6 to 13 µM
same,"viability at 24 h, 0.234375 µM",in vitro,113%
same,"viability at 24 h, 0.46875 µM",in vitro,103%
same,"viability at 24 h, 0.9375 µM",in vitro,104%
same,"viability at 24 h, 1.875 µM",in vitro,101%
same,"viability at 24 h, 3.75 µM",in vitro,91.9%
same,"viability at 24 h, 7.5 µM",in vitro,83.6%
same,"viability at 24 h, 15 µM",in vitro,60.5%
same,"viability at 24 h, 30 µM",in vitro,51%
same,solubility,[4],27 mg/mL and 58.50 mM
same,cytotoxicity (in words),"HEK293 cells [11]; HEK293, 24 h, up to 30 μM",moderate cytotoxicity
same,IC50 (Figure 3D: EC50 values for plot; log(inhibitor) vs. response -- Variable slope (four parameters)),"HEK293 cells [11]; HEK293 cell viability, fit per plate (3 plates, 4 technical replicates each), highest tested concentration 30 µM",26.0265 µM and 22.3419 µM and 19.1567 µM
same,LogIC50 (log(inhibitor) vs. response -- Variable slope (four parameters)),"HEK293 cells [11]; HEK293 cell viability, fit per plate (3 plates, 4 technical replicates each), log of [µM]",1.415 and 1.349 and 1.282
same,EC50,"HEK293 cells [11]; Homo sapiens, HEK293, 24 h",23.2 µM
Nc1nccc(Nc2ccc(NC(=O)c3ccc(Nc4ccnc5ccccc45)cc3)cc2)n1 [Compound 26],inhibition of Rlig1-AMP ligation (urea-PAGE),"Rlig1-AMP [5]; 10 μM compound, 500 nM Rlig1-AMP, 20 min 37 °C",Ligation was inhibited; also recorded: fully inhibited
same,HillSlope (best-fit value),Rlig1-AMP [5]; four-parameter fit,3.34
same,Span (best-fit value),Rlig1-AMP [5]; four-parameter fit,95.37
same,IC50,"Rlig1-AMP [5]; four-parameter fit, read-out: IC50 (best-fit value)",4.49 µM
same,percentage inhibition (dose response curve for IC50),Rlig1-AMP [5]; log Compound [µM] 0.273001,7.036 and 5.771 and 6.366
same,percentage inhibition (dose response curve for IC50),Rlig1-AMP [5]; log Compound [µM] 0.574031,19.5464 and 52.3001 and 38.2038
same,percentage inhibition (dose response curve for IC50),Rlig1-AMP [5]; log Compound [µM] 0.875061,94.6767 and 96.3427 and 56.3237
same,percentage inhibition (dose response curve for IC50),Rlig1-AMP [5]; log Compound [µM] 1.17609,97.6992 and 100 and 95.9858
same,percentage inhibition (dose response curve for IC50),Rlig1-AMP [5]; log Compound [µM] 1.47712,89.2369 and 100 (2×)
same,percentage inhibition (dose response curve for IC50),Rlig1-AMP [5]; log Compound [µM] -0.0280287,3.692 and 2.642 and 2.052
same,percentage inhibition (dose response curve for IC50),Rlig1-AMP [5]; log Compound [µM] -0.329059,0 and 3.294 and 5.142
same,percentage inhibition (dose response curve for IC50),Rlig1-AMP [5]; log Compound [µM] -0.630089,0 and 3.877 and 4.72
same,LogIC50 (best-fit value),"Rlig1-AMP [5]; log of µM, four-parameter fit",0.6524
same,Bottom (best-fit value),Rlig1-AMP [5]; [16],2.425
same,Top (best-fit value),Rlig1-AMP [5]; [16],97.8
same,IC50,Rlig1-AMP [5]; [15],4.49 µM
same,DNA product formation,[12]; hlig1 0.0315 µM,43.039% and 22.9913% and 34.3002%
same,DNA product formation,[12]; hlig1 0.0625 µM,60.9211% and 39.0213% and 52.249%
same,DNA product formation,[12]; hlig1 0.5 µM,79.5392% and 84.6219% and 85.9221%
same,cell morphology,HEK293 cells [9],poor adherence and cell shrinkage
Cc1ccc2c(-c3nc(Nc4cc(CN5C[C@@H](C)N[C@@H](C)C5)cc(C5CC5)c4)ncc3Cl)c[nH]c2c1 [HM43239],1-D Distance,Rlig1-AMP [1]; sheet HTS hits,834
same,Raw data [w Enyzm],Rlig1-AMP [1]; sheet HTS hits,6467
same,Raw data [w/o Enzym],Rlig1-AMP [1]; sheet HTS hits,5633
same,IC50,[13],0.0018 µM
same,"solubility, DMSO",[14],DMSO : 125 mg/mL (249.47 mM; Need ultrasonic)
